Results reported in patent US10526347B2, “3-(3H-imidazo[4,5-B]pyridin-2-yl)-1H-pyrazolo[3,4-B]pyridine and therapeutic uses thereof” (Samumed, LLC, priority 2014, dated 2020).

What was measured:
Type in all cases: cell-based
[1] = test system: primary human mesenchymal stem cells (hMSCs); test: Chondrogenesis induction in primary human mesenchymal stem cells (chondrogenic nodules, Rhodamine B / Nile Red); conditions: 6 days; for Max. Activity as % TGF-β3 activity: positive control TGF-β3 10 ng/mL, nodule number normalized to DMSO; for EC (100% of TGF-beta3 activity): Homo sapiens, Mesenchymal stem cells, 144 h, concentration required to induce chondrogenesis equivalent to TGF-β3 10 ng/mL, read-out: Conc (nM) of 100% TGF-β3 activity
Protocol: The above synthesized compounds were screened using primary human mesenchymal stem cells (hMSCs) to determine their ability to induce chondrogenesis (process by which cartilage is developed).
Primary human mesenchymal stem cells (hMSCs) were purchased from Lonza (Walkersville, Md.) and expanded in Mesenchymal Stem Cell Growth Media (Lonza). Cells between passage 3 and 6 were used for the experiments.
Each compound was dissolved in DMSO as a 10 mM stock and used to prepare compound source plates. Serial dilution (1:3, 6-point dose-response curves from 2700 nM to 10 nM) and compound transfer was performed using the ECHO 550 (Labcyte, Sunnyvale, Calif.) into 96-well clear bottom assay plates (Greiner Bio-One) with appropriate DMSO backfill for a final DMSO concentration of 0.03%. hMSCs were plated at 20,000 cells/well in 250 μL/well Incomplete Chondrogenic Induction Medium (Lonza; DMEM, dexamethasone, ascorbate, insulin-transferrin-selenium [ITS supplement], gentamycin-amphotericin [GA-1000], sodium pyruvate, proline and L-glutamine). TGF-β3 (10 ng/mL) was used as a positive control for differentiation while negative control wells were treated with 75 nL DMSO for normalization and calculating EC50 values. Cells were incubated at 37° C. and 5% CO2 for 6 days. To image chondrogenic nodules, the cells were fixed using 4% formaldehyde (Electron Microscopy Sciences), and stained with 2 μg/mL Rhodamine B (Sigma-Aldrich) and 20 μM Nile Red (Sigma-Aldrich) [Johnson K., et. al, A Stem Cell-Based Approach to Cartilage Repair, Science, (2012), 336(6082). 717-721]. The nodules imaged (4 images per well at 4× magnification) by excitation at 531 nm and emission at 625 nm and quantified using the CellInsight CX5 (Thermo Scientific). Number of nodules in each well was normalized to the average of 3 DMSO treated wells on the same plate using Excel (Microsoft Inc.). The normalized averages (fold change over DMSO) of 3 replicate wells for each compound concentration were calculated. Due to solubility limitations of some of the compounds, curve fitting was incomplete leading to inaccurate EC50 determinations.
Using TGF-β3 as a positive control, the concentration of test compounds required to induce equivalent levels of chondrogenesis is reported. In addition, the maximum activity of each compound and the respective dose that each compound reached maximum chondrogenesis activity is reported.

[2] = test system: primary human fibroblasts derived from IPF patients (LL29 cells); test: Inhibition of the fibrotic process in TGF-β1 treated IPF patient fibroblasts (αSMA staining); conditions: Fibroblast, 96 h, LL29 cells treated with TGF-β1 (20 ng/mL), 4 days, read-out: Inhibition of fibrosis EC50
How it was run: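 LL29 IPF lung fibroblasts in F12 with 1% FBS, compound (11-point, 10 μM to 1.87 nM, 0.1% DMSO) plus TGF-β1 20 ng/mL for 4 days at 37° C. αSMA-positive % of SYTOX-negative cells by immunofluorescence imaging, normalized to TGF-β1 wells; EC50 from non-linear regression of triplicates.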

[3] = test system: Wnt activity (SW480 colon carcinoma cells stably expressing the Sp5-Luc reporter gene); test: Sp5-Luc reporter gene screening assay for Wnt activity; conditions: Homo sapiens
How it was run: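 The SW480 cells carry a lentiviral luciferase reporter driven by a Sp5 promoter with eight TCF/LEF sites. They were plated at 10,000 cells/well in 10% FCS overnight, then pinned with 50 nl of 3-fold dilutions (10 mM top source concentration) into 50 μl.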

| SMILES | Max. Activity as % TGF-β3 activity [1] [%] | EC (100% of TGF-beta3 activity) [1] [nM] | EC50 [2] [nM] | IC50 [3] [nM] |
| --- | --- | --- | --- | --- |
| CCC(=O)Nc1cncc(-c2cnc3[nH]nc(-c4nc5c(N6CCCCC6)ccnc5[nH]4)c3c2)c1 [Compound 133, N-(5-(3-(7-(Piperidin-1-yl)-3H-imidazo[4,5-b]pyridin-2-yl)-1H-pyrazolo[3,4-b]pyridin-5-yl)pyridin-3-yl)propionamide] | 300 | 317 | 853 | 36.6 |
| Cc1ncc(-c2cnc3[nH]nc(-c4nc5c(-c6cccc(F)c6)ccnc5[nH]4)c3c2)n1C [Compound 913, 5-(1,2-Dimethyl-1H-imidazol-5-yl)-3-(7-(3-fluorophenyl)-3H-imidazo[4,5-b]pyridin-2-yl)-1H-pyrazolo[3,4-b]pyridine] | 300 | 117 | 216 | 66 |
